Laboratory results as given in ChEMBL document CHEMBL1201862, “PubChem BioAssay data set” (2004).
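Five compound concentrations were applied to cells in 96-well plates for 48 hours; endpoints were derived by simple linear interpolation of the resulting dose-response curve. GI50 = concentration required for 50% inhibition of growth.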 Calls of active or inactive are those of the source. Cut-off read from the data, not from the text of the source: active = GI50 up to about 1.1 µM and inactive = higher.

Key:
Assay in all cases: NCI anticancer screen, dose series, 48 h
NCI-H460 = tested on: NCI-H460
DMS-273 = tested on: DMS-273
HCT-116 = tested on: HCT-116
DLD-1 = tested on: DLD-1
NCI-H522 = tested on: NCI-H522
COLO 205 = tested on: COLO 205
Malme-3M = tested on: Malme-3M
UACC-62 = tested on: UACC-62
HOP-92 = tested on: HOP-92
UO-31 = tested on: UO-31
OVCAR-4 = tested on: OVCAR-4
HL-60 = tested on: HL-60
SNB-75 = tested on: SNB-75
IGROV-1 = tested on: IGROV-1
MOLT-4 = tested on: MOLT-4
RPMI-8226 = tested on: RPMI-8226
DMS-114 = tested on: DMS-114
SR = tested on: SR
M19-MEL = tested on: M19-MEL
HOP-62 = tested on: HOP-62
786-0 = tested on: 786-0
NCI-H23 = tested on: NCI-H23
CCRF-CEM = tested on: CCRF-CEM
K562 = tested on: K562
SK-MEL-28 = tested on: SK-MEL-28
SF-539 = tested on: SF-539
XF498 = tested on: XF498
SNB-78 = tested on: SNB-78
SK-MEL-2 = tested on: SK-MEL-2
HCC 2998 = tested on: HCC 2998
SN12C = tested on: SN12C
SF-268 = tested on: SF-268
NCI-H226 = tested on: NCI-H226
CAKI-1 = tested on: CAKI-1
M14 = tested on: M14
A498 = tested on: A498
LXFL 529 = tested on: LXFL 529
SK-OV-3 = tested on: SK-OV-3
RXF 393 = tested on: RXF 393
SK-MEL-5 = tested on: SK-MEL-5
OVCAR-8 = tested on: OVCAR-8
HT-29 = tested on: HT-29
ACHN = tested on: ACHN
KM-20L2 = tested on: KM-20L2
U-251 = tested on: U-251
UACC-257 = tested on: UACC-257
A549 = tested on: A549
EKVX = tested on: EKVX
SW-620 = tested on: SW-620
HCT-15 = tested on: HCT-15
OVCAR-3 = tested on: OVCAR-3
KM12 = tested on: KM12
SF-295 = tested on: SF-295
TK-10 = tested on: TK-10
OVCAR-5 = tested on: OVCAR-5
LOX IMVI = tested on: LOX IMVI

Cc1[nH]c(=O)nc(N/N=C/c2ccc(O)cc2)c1C(=O)Nc1ccc(O)cc1
GI50 (NCI-H460): > 100 µM (inactive) | GI50 (DMS-273): > 100 µM (inactive) | GI50 (HCT-116): > 100 µM (inactive) | GI50 (DLD-1): > 100 µM (inactive) | GI50 (NCI-H522): > 100 µM (inactive) | GI50 (COLO 205): > 100 µM (inactive) | GI50 (Malme-3M): > 100 µM (inactive) | GI50 (UACC-62): > 100 µM (inactive) | GI50 (HOP-92): > 100 µM (inactive) | GI50 (UO-31): > 100 µM (inactive) | GI50 (OVCAR-4): > 100 µM (inactive) | GI50 (HL-60): > 100 µM (inactive) | GI50 (SNB-75): > 100 µM (inactive) | GI50 (IGROV-1): > 100 µM (inactive) | GI50 (MOLT-4): > 100 µM (inactive) | GI50 (RPMI-8226): > 100 µM (inactive) | GI50 (DMS-114): > 100 µM (inactive) | GI50 (SR): > 100 µM (inactive) | GI50 (M19-MEL): > 100 µM (inactive) | GI50 (HOP-62): > 100 µM (inactive) | GI50 (786-0): > 100 µM (inactive) | GI50 (NCI-H23): > 100 µM (inactive) | GI50 (CCRF-CEM): > 100 µM (inactive) | GI50 (K562): > 100 µM (inactive) | GI50 (SK-MEL-28): > 100 µM (inactive) | GI50 (SF-539): > 100 µM (inactive) | GI50 (XF498): > 100 µM (inactive) | GI50 (SNB-78): 72.8 µM (inactive) | GI50 (SK-MEL-2): > 100 µM (inactive) | GI50 (HCC 2998): > 100 µM (inactive) | GI50 (SN12C): > 100 µM (inactive) | GI50 (SF-268): > 100 µM (inactive) | GI50 (NCI-H226): > 100 µM (inactive) | GI50 (CAKI-1): > 100 µM (inactive) | GI50 (M14): > 100 µM (inactive) | GI50 (A498): > 100 µM (inactive) | GI50 (LXFL 529): > 100 µM (inactive) | GI50 (SK-OV-3): > 100 µM (inactive)

CC(C)C1CC2C(=O)N(c3ccccc3)C(=O)C2c2[nH]c3ccccc3c21 (stereo not given)
GI50 (RXF 393): 21.3 µM (inactive) | GI50 (NCI-H460): 4.63 µM (inactive) | GI50 (DMS-273): 9.84 µM (inactive) | GI50 (HCT-116): 4.13 µM (inactive) | GI50 (DLD-1): 42.5 µM (inactive) | GI50 (Malme-3M): 25.8 µM (inactive) | GI50 (UACC-62): 24.6 µM (inactive) | GI50 (SK-MEL-5): 73.8 µM (inactive) | GI50 (UO-31): 17.3 µM (inactive) | GI50 (OVCAR-4): 2.32 µM (inactive) | GI50 (OVCAR-8): 7.24 µM (inactive) | GI50 (HL-60): 7.45 µM (inactive) | GI50 (HT-29): 22.9 µM (inactive) | GI50 (ACHN): 4.4 µM (inactive) | GI50 (SNB-75): 6.98 µM (inactive) | GI50 (KM-20L2): 73.6 µM (inactive) | GI50 (IGROV-1): 34.5 µM (inactive) | GI50 (U-251): 12 µM (inactive) | GI50 (MOLT-4): 11.2 µM (inactive) | GI50 (RPMI-8226): 19.8 µM (inactive) | GI50 (DMS-114): 20.4 µM (inactive) | GI50 (M19-MEL): 56.4 µM (inactive) | GI50 (HOP-62): 29.2 µM (inactive) | GI50 (UACC-257): 34.6 µM (inactive) | GI50 (786-0): 21.1 µM (inactive) | GI50 (A549): 14.4 µM (inactive) | GI50 (NCI-H23): 19.5 µM (inactive) | GI50 (CCRF-CEM): 14 µM (inactive) | GI50 (K562): 4.85 µM (inactive) | GI50 (EKVX): 61.7 µM (inactive) | GI50 (SW-620): 8.26 µM (inactive) | GI50 (SK-MEL-28): 23.4 µM (inactive) | GI50 (SF-539): 13.8 µM (inactive) | GI50 (HCT-15): 14.6 µM | GI50 (XF498): 23.3 µM (inactive) | GI50 (SNB-78): 22.4 µM (inactive) | GI50 (OVCAR-3): 5.78 µM (inactive) | GI50 (SK-MEL-2): 35.2 µM (inactive) | GI50 (HCC 2998): > 100 µM (inactive) | GI50 (KM12): 9.91 µM (inactive) | GI50 (NCI-H226): 16.2 µM (inactive) | GI50 (CAKI-1): 5.68 µM (inactive) | GI50 (SF-295): 6.9 µM (inactive) | GI50 (M14): 38.5 µM (inactive) | GI50 (A498): 32 µM (inactive) | GI50 (TK-10): 23.1 µM (inactive) | GI50 (OVCAR-5): > 100 µM (inactive) | GI50 (SK-OV-3): 20.5 µM (inactive)

COc1c(Br)cc(Br)c(OC)c1-c1ccc[nH]1
GI50 (NCI-H460): > 100 µM (inactive) | GI50 (DMS-273): 87.9 µM (inactive) | GI50 (HCT-116): 97.3 µM (inactive) | GI50 (DLD-1): 62.5 µM (inactive) | GI50 (NCI-H522): 55.1 µM (inactive) | GI50 (COLO 205): > 100 µM (inactive) | GI50 (UACC-62): 56.1 µM (inactive) | GI50 (HOP-92): 37.3 µM (inactive) | GI50 (SK-MEL-5): > 100 µM (inactive) | GI50 (UO-31): 43.3 µM (inactive) | GI50 (OVCAR-4): 22.1 µM (inactive) | GI50 (OVCAR-8): > 100 µM (inactive) | GI50 (HL-60): 31.6 µM (inactive) | GI50 (HT-29): 38.8 µM (inactive) | GI50 (ACHN): > 100 µM (inactive) | GI50 (SNB-75): 22.1 µM (inactive) | GI50 (IGROV-1): 53.6 µM (inactive) | GI50 (U-251): > 100 µM (inactive) | GI50 (MOLT-4): 46.8 µM (inactive) | GI50 (RPMI-8226): 80.4 µM (inactive) | GI50 (DMS-114): 74.6 µM (inactive) | GI50 (M19-MEL): 91 µM (inactive) | GI50 (HOP-62): > 100 µM (inactive) | GI50 (UACC-257): > 100 µM (inactive) | GI50 (786-0): > 100 µM (inactive) | GI50 (A549): > 100 µM (inactive) | GI50 (NCI-H23): > 100 µM (inactive) | GI50 (CCRF-CEM): 78.9 µM (inactive) | GI50 (K562): 22.3 µM (inactive) | GI50 (EKVX): > 100 µM (inactive) | GI50 (SW-620): 35 µM (inactive) | GI50 (SK-MEL-28): > 100 µM (inactive) | GI50 (SF-539): > 100 µM (inactive) | GI50 (HCT-15): 55.8 µM | GI50 (SNB-78): > 100 µM (inactive) | GI50 (OVCAR-3): > 100 µM (inactive) | GI50 (SK-MEL-2): 45.3 µM (inactive) | GI50 (KM12): > 100 µM (inactive) | GI50 (SF-268): > 100 µM (inactive) | GI50 (NCI-H226): 43.9 µM (inactive) | GI50 (LOX IMVI): > 100 µM (inactive) | GI50 (CAKI-1): 13.3 µM (inactive) | GI50 (SF-295): > 100 µM (inactive) | GI50 (M14): 75.7 µM (inactive) | GI50 (A498): > 100 µM (inactive) | GI50 (LXFL 529): > 100 µM (inactive) | GI50 (TK-10): 5.83 µM (inactive) | GI50 (OVCAR-5): > 100 µM (inactive) | GI50 (SK-OV-3): > 100 µM (inactive)
